Drawing on the supplement of paper PMC10307832, this text covers relative viability for five compounds.

For one experiment, the system named is NCI-H647. The experiment in a line: relative viability (nuclei count vs DMSO), 5 days (fraction); higher = more cells survive. The conditions noted are these: first compound 6.325 µM. In a few lines:
(§1)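 Lung cancer cell lines were seeded in 1536-well plates and dosed by pin tool the next day, with either a single drug or a fixed anchor-drug dose combined with five library-drug doses (not always all listed) spaced in √10 steps. Five days later, one step fixed the cells and stained their nuclei (final 0.05% Triton X-100, 1% formaldehyde, 1 ug/ml Hoechst), and nuclei were counted on 4× images. Relative viability is the nuclei count in treated wells divided by the count in vehicle wells, and each value is the median of duplicate plates.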
For the compound `COCC1(CO)C(=O)C2CCN1CC2` (stereo unspecified) [PRIMA-1MET] + Nc1ncn([C@H]2C[C@H](O)[C@@H](CO)O2)c(=O)n1 [Decitabine] (partner 2 µM), the relative viability was 0.333.
In turn, `COCC1(CO)C(=O)C2CCN1CC2` (stereo unspecified) [PRIMA-1MET] + O=C(c1cc(Cc2n[nH]c(=O)c3ccccc23)ccc1F)N1CCN(C(=O)C2CC2)CC1 [Olaparib] (partner 8 µM) yielded a relative viability of 0.607.
The same measure, in the same setting: the figure for `COCC1(CO)C(=O)C2CCN1CC2` (stereo unspecified) [PRIMA-1MET] + C[C@@H](Oc1cc(-c2cnn(C3CCNCC3)c2)cnc1N)c1c(Cl)ccc(F)c1Cl [Crizotinib] (partner 1 µM) is 1.08.

Staying with this experiment, now noted: first compound 20 µM.
With `COCC1(CO)C(=O)C2CCN1CC2` (stereo unspecified) [PRIMA-1MET] + CC(C)C[C@H](NC(=O)[C@H](Cc1ccccc1)NC(=O)c1cnccn1)B(O)O [Bortezomib] (partner 0.002 µM), the relative viability amounted to 0.686.
For `COCC1(CO)C(=O)C2CCN1CC2` (stereo unspecified) [PRIMA-1MET] + CC(=O)Nc1cccc(-n2c(=O)n(C3CC3)c(=O)c3c(Nc4ccc(I)cc4F)n(C)c(=O)c(C)c32)c1 [Trametinib] (partner 0.02 µM), the relative viability was determined as 0.413.
Same read-out and setting: next, `COCC1(CO)C(=O)C2CCN1CC2` (stereo unspecified) [PRIMA-1MET] + Nc1ncn([C@H]2C[C@H](O)[C@@H](CO)O2)c(=O)n1 [Decitabine] (partner 2 µM): 0.39.
Regarding `COCC1(CO)C(=O)C2CCN1CC2` (stereo unspecified) [PRIMA-1MET] + O=C(c1cc(Cc2n[nH]c(=O)c3ccccc23)ccc1F)N1CCN(C(=O)C2CC2)CC1 [Olaparib] (partner 8 µM), the relative viability was 0.593.
With `COCC1(CO)C(=O)C2CCN1CC2` (stereo unspecified) [PRIMA-1MET] + C[C@@H](Oc1cc(-c2cnn(C3CCNCC3)c2)cnc1N)c1c(Cl)ccc(F)c1Cl [Crizotinib] (partner 1 µM), the relative viability came out at 0.896.

The subject of a further experiment is EMC-BAC-2. The experiment is described as above. Particulars: first compound 0.2 µM. In a few lines:
as §1
`COCC1(CO)C(=O)C2CCN1CC2` (stereo unspecified) [PRIMA-1MET] + CC(C)C[C@H](NC(=O)[C@H](Cc1ccccc1)NC(=O)c1cnccn1)B(O)O [Bortezomib] (partner 0.002 µM) showed a relative viability of 1.15.
`COCC1(CO)C(=O)C2CCN1CC2` (stereo unspecified) [PRIMA-1MET] + CC(=O)Nc1cccc(-n2c(=O)n(C3CC3)c(=O)c3c(Nc4ccc(I)cc4F)n(C)c(=O)c(C)c32)c1 [Trametinib] (partner 0.02 µM) displayed a relative viability of 0.637.
The same measure, in the same setting: the figure for `COCC1(CO)C(=O)C2CCN1CC2` (stereo unspecified) [PRIMA-1MET] + Nc1ncn([C@H]2C[C@H](O)[C@@H](CO)O2)c(=O)n1 [Decitabine] (partner 2 µM) is 1; for `COCC1(CO)C(=O)C2CCN1CC2` (stereo unspecified) [PRIMA-1MET] + O=C(c1cc(Cc2n[nH]c(=O)c3ccccc23)ccc1F)N1CCN(C(=O)C2CC2)CC1 [Olaparib] (partner 8 µM) it is 0.624; for `COCC1(CO)C(=O)C2CCN1CC2` (stereo unspecified) [PRIMA-1MET] + C[C@@H](Oc1cc(-c2cnn(C3CCNCC3)c2)cnc1N)c1c(Cl)ccc(F)c1Cl [Crizotinib] (partner 1 µM) it is 0.837.

Staying with this experiment, now noted: first compound 0.6325 µM.
Turning to `COCC1(CO)C(=O)C2CCN1CC2` (stereo unspecified) [PRIMA-1MET] + CC(C)C[C@H](NC(=O)[C@H](Cc1ccccc1)NC(=O)c1cnccn1)B(O)O [Bortezomib] (partner 0.002 µM), the relative viability came out at 1.02.
The compound `COCC1(CO)C(=O)C2CCN1CC2` (stereo unspecified) [PRIMA-1MET] + CC(=O)Nc1cccc(-n2c(=O)n(C3CC3)c(=O)c3c(Nc4ccc(I)cc4F)n(C)c(=O)c(C)c32)c1 [Trametinib] (partner 0.02 µM) gave a relative viability of 0.904.
On to `COCC1(CO)C(=O)C2CCN1CC2` (stereo unspecified) [PRIMA-1MET] + Nc1ncn([C@H]2C[C@H](O)[C@@H](CO)O2)c(=O)n1 [Decitabine] (partner 2 µM), for which the relative viability amounted to 0.818.
`COCC1(CO)C(=O)C2CCN1CC2` (stereo unspecified) [PRIMA-1MET] + O=C(c1cc(Cc2n[nH]c(=O)c3ccccc23)ccc1F)N1CCN(C(=O)C2CC2)CC1 [Olaparib] (partner 8 µM) registered a relative viability of 0.486.
`COCC1(CO)C(=O)C2CCN1CC2` (stereo unspecified) [PRIMA-1MET] + C[C@@H](Oc1cc(-c2cnn(C3CCNCC3)c2)cnc1N)c1c(Cl)ccc(F)c1Cl [Crizotinib] (partner 1 µM) showed a relative viability of 0.779.

Staying with this experiment, now noted: first compound 2 µM.
Compound `COCC1(CO)C(=O)C2CCN1CC2` (stereo unspecified) [PRIMA-1MET] + CC(C)C[C@H](NC(=O)[C@H](Cc1ccccc1)NC(=O)c1cnccn1)B(O)O [Bortezomib] (partner 0.002 µM) gave a relative viability of 0.952.
Compound `COCC1(CO)C(=O)C2CCN1CC2` (stereo unspecified) [PRIMA-1MET] + CC(=O)Nc1cccc(-n2c(=O)n(C3CC3)c(=O)c3c(Nc4ccc(I)cc4F)n(C)c(=O)c(C)c32)c1 [Trametinib] (partner 0.02 µM) yielded a relative viability of 0.907.
In the case of `COCC1(CO)C(=O)C2CCN1CC2` (stereo unspecified) [PRIMA-1MET] + Nc1ncn([C@H]2C[C@H](O)[C@@H](CO)O2)c(=O)n1 [Decitabine] (partner 2 µM), the relative viability is 0.967.
With `COCC1(CO)C(=O)C2CCN1CC2` (stereo unspecified) [PRIMA-1MET] + C[C@@H](Oc1cc(-c2cnn(C3CCNCC3)c2)cnc1N)c1c(Cl)ccc(F)c1Cl [Crizotinib] (partner 1 µM), the relative viability came out at 0.666.

Staying with this experiment, now noted: first compound 6.325 µM.
`COCC1(CO)C(=O)C2CCN1CC2` (stereo unspecified) [PRIMA-1MET] + CC(C)C[C@H](NC(=O)[C@H](Cc1ccccc1)NC(=O)c1cnccn1)B(O)O [Bortezomib] (partner 0.002 µM): the relative viability came out at 1.03.
On to `COCC1(CO)C(=O)C2CCN1CC2` (stereo unspecified) [PRIMA-1MET] + CC(=O)Nc1cccc(-n2c(=O)n(C3CC3)c(=O)c3c(Nc4ccc(I)cc4F)n(C)c(=O)c(C)c32)c1 [Trametinib] (partner 0.02 µM), for which the relative viability was found to be 0.734.
`COCC1(CO)C(=O)C2CCN1CC2` (stereo unspecified) [PRIMA-1MET] + Nc1ncn([C@H]2C[C@H](O)[C@@H](CO)O2)c(=O)n1 [Decitabine] (partner 2 µM): the relative viability was determined as 0.938.
The compound `COCC1(CO)C(=O)C2CCN1CC2` (stereo unspecified) [PRIMA-1MET] + O=C(c1cc(Cc2n[nH]c(=O)c3ccccc23)ccc1F)N1CCN(C(=O)C2CC2)CC1 [Olaparib] (partner 8 µM) gave a relative viability of 0.499.
In turn, `COCC1(CO)C(=O)C2CCN1CC2` (stereo unspecified) [PRIMA-1MET] + C[C@@H](Oc1cc(-c2cnn(C3CCNCC3)c2)cnc1N)c1c(Cl)ccc(F)c1Cl [Crizotinib] (partner 1 µM) had a relative viability of 0.771.

The same experiment, now with this note: first compound 20 µM.
`COCC1(CO)C(=O)C2CCN1CC2` (stereo unspecified) [PRIMA-1MET] + CC(C)C[C@H](NC(=O)[C@H](Cc1ccccc1)NC(=O)c1cnccn1)B(O)O [Bortezomib] (partner 0.002 µM) came in with a relative viability of 1.08.
`COCC1(CO)C(=O)C2CCN1CC2` (stereo unspecified) [PRIMA-1MET] + CC(=O)Nc1cccc(-n2c(=O)n(C3CC3)c(=O)c3c(Nc4ccc(I)cc4F)n(C)c(=O)c(C)c32)c1 [Trametinib] (partner 0.02 µM) yielded a relative viability of 0.91.
The compound `COCC1(CO)C(=O)C2CCN1CC2` (stereo unspecified) [PRIMA-1MET] + Nc1ncn([C@H]2C[C@H](O)[C@@H](CO)O2)c(=O)n1 [Decitabine] (partner 2 µM) showed a relative viability of 0.928.
On to `COCC1(CO)C(=O)C2CCN1CC2` (stereo unspecified) [PRIMA-1MET] + O=C(c1cc(Cc2n[nH]c(=O)c3ccccc23)ccc1F)N1CCN(C(=O)C2CC2)CC1 [Olaparib] (partner 8 µM), for which the relative viability was 0.43.
